Data on one molecule can be found in patent publication US20190008864A1, “PHARMACEUTICAL COMPOSITION CONTAINING GPR119 LIGAND AS EFFECTIVE INGREDIENT FOR PREVENTING OR TREATING NON-ALCOHOLIC STEATOHEPATITIS” (PHARMEDIX.CO., LTD., priority 2014, published 2019).

The structures appear in SMILES notation.

Test [1] has as its system SREBP-1c. Put plainly: SREBP-1c expression under high-glucose/high-insulin exposure, HepG2 (western blot). The test is classed as cell-based, human. As to conditions: 30 mM glucose, 200 nM insulin 24 hours, 1-3 μM ligand. As for the experimental part: A 6-well plate was inoculated with HepG2 (ATCC, US), as a human hepatocyte line, and cultured until confluence in a DMEM medium containing 1% penicillin-streptomycin (Hyclone, US) and 10% fetal bovine serum (Hyclone, US) in a 5% CO2 incubator at 37° C. The medium containing 10% fetal bovine serum of the hepatocyte line grown to confluence was replaced by a medium not containing FBS. The cell line was additionally cultured for 18 hours and used as a sample for an experiment.
(§1) Sodium dodecyl sulfate-polyacrylamide gel electrophoresis (SDS-PAGE) was carried out by means of a gel electrophoresis device (Mighty Small SE 250, Hoefer Scientific Instruments, San Francisco) according to a method by Laemmli (UK, Nature 227, 680-685, 1970). […] Whether total protein contents in samples are the same is determined using anti-β-actin and anti-LaminA/C antibodies. Changes in protein expression amounts were determined by measuring the intensities of chemiluminescence signals on the blot by means of densitometry. […] Each lane was calculated using AlphaEase™ version 5.5 software and background intensity was removed from the calculated values. […]
(In general: A western blot detects proteins with antibodies after separation by electrophoresis.)

The test system of test [2] is SREBP-1c. Put plainly: SREBP-1c expression under high-glucose/high-insulin exposure, primary hepatocytes (western blot). The test is classed as cell-based, mouse. As to conditions: 0.3-10 μM ligand. How it is done:
Liver cells were collected from male C57BL/6 mice (Central Lab. Animal Inc., Seoul) according to a method by Seglen et al. (Exp Cell Res., 82, pp 391-398, 1973). Each C57BL/6 mouse was anesthetized and then the abdomen thereof was incised. Subsequently, the hepatic portal vein was intubated and a gas mixture of 5% CO2 and 95% O2 was insufflated thereinto. A Ca^2+ and Mg^2+-free Hank's balanced salt solution at 37° C. was flowed into the tube to remove blood in the liver. Subsequently, a 0.1% collagenase type IV (Sigma, US) solution was flowed thereinto. The liver tissue was removed from the body, and then prepared into a hepatocyte suspension. The prepared hepatocyte suspension was centrifuged at 50×g for two minutes. […]
as §1

Test [3] relates to non-alcoholic steatohepatitis (NASH) animal models induced by methionine-choline deficient diet. Put plainly: NASH animal model induced by methionine-choline deficient diet. As to conditions: MCD diet 4 weeks, 10 and 30 mg/kg oral. The test is classed as in vivo, C57BL/6J mice. An excerpt: A liver fibrosis-inducing diet in the present invention is a methionine and choline-deficient (MCD) diet. Six-week-old male C57BL/6J mice (Central Lab. Animal Inc., Seoul, Korea) were acclimated to an experimental environment for one week while being fed solid food, and then randomly divided into a control group and an experimental group for the MCD diet using a randomized block design. The animal groups were fed for 4 weeks, and thus, liver fibrosis animal models were established. Liver fibrosis development was determined according to blood biochemical and histochemical analysis methods. The mice were orally fed once a day for five days every week with a GPR119 ligand (10 mg/kg and 30 mg/kg), which was suspended in 40% PEG400, in combination with the MCD diet. After terminating the experiment, the experimental animals fasted for 12 hours or more. Subsequently, blood and liver samples were collected from the animals, which had been anesthetized with diethyl ether, and then washed with a 0.1 M phosphate buffered saline (pH 7.4), followed by being weighed. […] Serum Lactate dehydrogenase (LDH) from the experimental animals raised for 4 weeks was measured as follows. The serum LDH was measured using a commercially available measurement kit (Bio Clinical system). […] Steatosis, ballooning, and lobular inflammation were blindly assessed by pathologists.

Regarding `CCc1cnc(N2CCC(c3nc(COc4ccc(-n5cnnn5)cc4)cs3)CC2)nc1` [MBX2982, 4-((4-(1H-tetrazol-1-yl)phenoxy)methyl)-2-(1-(5-ethylpyrimidin-2-yl)piperidin-4-yl)thiazole], the “SREBP-1c and nuclear (active-type) SREBP-1C expression increased by high-glucose/high-insulin” value in the test on SREBP-1c [1] is listed as “completely inhibited”. Moreover, in the test with SREBP-1c [2], the “SREBP-1c and nuclear (active-type) SREBP-1C expression increased by high-glucose/high-insulin” value is listed as “completely inhibited”. Further, in test [3], the “lobular inflammation (NAFLD activity score)” value is on record as “inhibited” and the “other markers (steatosis, ballooning, serum LDH)” value is on record as “did not show significant changes”.
